Source: patent US11591369B2, “Alpha(v)beta(6) integrin-binding peptides and methods of use thereof” (priority 2018, dated 2023)
Values joined by “and” are separate entries in the source; they are usually repeats but may differ in a detail not shown here. Equal values may be shown once. Read-outs that look alike come from different tables or passages of the source. Primed or numbered codes have the meaning given here. Where no end group is shown, it is not given here. [ ]: non-standard residue; d: D form. The star is where a group is joined. (18F)FB = [18F] fluorobenzoyl group, O=C(c1ccc([18F])cc1)*; (18F)FB″ = [18F]fluorobenzoyl, O=C(c1ccc([18F])cc1)*; PEG12′ = polyethylene glycol, 12 units; PEG28″ = polyethylene glycol, 28 units; PEG2′ = polyethylene glycol, 2 units; PEG4′ = polyethylene glycol, 4 units; PEG8′ = polyethylene glycol, 8 units; PEG28′ = polyethylene glycol-28; Amb = aminomethylbenzoyl

Tests used:
DX3puroβ6 (αvβ6+) cells = test: [18F]-radiolabeled peptide cell binding and internalization, DX3puroβ6 (αvβ6+) cells; format: cell-based, human; design: fold increase in binding to DX3puroβ6 (αvβ6+) cells / fold lower binding to DX3puroβ6 (αvβ6+) cells: reference not given here; details: for percent internalized relative to the amount bound to DX3puroβ6 (αvβ6+) cells / binding to DX3puroβ6 (αvβ6+) cells: 1 hour; for binding to DX3puroβ6 (αvβ6+) cells: % of total activity, 37° C.
[1] = 37° C., 1 hour, radio-HPLC

Substance | percent internalized relative to the amount bound to DX3puroβ6 (αvβ6+) cells (DX3puroβ6 (αvβ6+) cells) [%] | binding to DX3puroβ6 (αvβ6+) cells (DX3puroβ6 (αvβ6+) cells) | intact peptide in mouse serum [1] | DX3puroβ6 (αvβ6+)/DX3puro (αvβ6−) selectivity ratio (DX3puroβ6 (αvβ6+) cells) | fold loss in selectivity for DX3puroβ6 (αvβ6+) cells (DX3puroβ6 (αvβ6+) cells) [fold] | fold decline in binding to DX3puroβ6 (αvβ6+) cells (DX3puroβ6 (αvβ6+) cells; compared to the parent T1) [fold] | intact peptide in mouse serum ([1]; 60 min) | fold lower binding to DX3puroβ6 (αvβ6+) cells (DX3puroβ6 (αvβ6+) cells) [fold] | fold increase in binding to DX3puroβ6 (αvβ6+) cells (DX3puroβ6 (αvβ6+) cells) [fold]
VGDLTYLKK([^18F]FB) (VGDLTYLKK((18F)FB″)) [[^18F]P1] | 3.7±0.6 | 12.8±1.9% | 25% and < 25% |  |  |  |  |  | 
VGDLTYLKK([^18F]FB)KVART (VGDLTYLKK((18F)FB″)KVART) [[^18F]P1K-a] |  | 6.2±1.3% | > 99% |  |  |  |  |  | 
[^18F]FB-Amb-VGDLTYLKQKVART-PEG28 ({(18F)FB″-Amb}-VGDLTYLKQKVART[PEG28′]) [N-[^18F]T1-f] | 25.2±2.4 | 6.8±0.2% | < 50% | 3.2±0.4 :1 | 13 | 3 |  |  | 
[^18F]FB-PEG2-VGDLTYLKQKVART-PEG28 ({(18F)FB″-PEG2′}-VGDLTYLKQKVART[PEG28″]) [N-[^18F]T1-a] | 31.1±7.2 |  | 65% |  |  |  |  |  | 
[^18F]FB-PEG4-VGDLTYLKQKVART-PEG28 ({(18F)FB″-PEG4′}-VGDLTYLKQKVART[PEG28″]) [N-[^18F]T1-b] | 33.9±7.9 |  |  |  |  |  | 72% and 75% |  | 
[^18F]FB-PEG8-VGDLTYLKQKVART-PEG28 ({(18F)FB″-PEG8′}-VGDLTYLKQKVART[PEG28″]) [N-[^18F]T1-c] | 36.9±3 |  | 91% |  |  |  |  |  | 
[^18F]FB-PEG12-VGDLTYLKQKVART-PEG28 ({(18F)FB″-PEG12′}-VGDLTYLKQKVART[PEG28″]) [N-[^18F]T1-d] | 32±13 |  | 82% |  |  |  |  |  | 
[^18F]FB-PEG28Amb-VGDLTYLKQKVART-PEG28 ({(18F)FB-PEG28′-Amb}-VGDLTYLKQKVART[PEG28′]) [N-[^18F]T1-g] | 43.1±4.4 | 3±0.2% | 90% | 5.7±0.06 :1 and 5.7±0.05 :1 | 7 |  |  | 2 | 
[^18F]FB-RGDLADLRQKVART ({(18F)FB″}-RGDLADLRQKVART) [N-[^18F]P3Q] | 12.4±3.6 | 20±0.4% and 20±0.2% and 20% | 16% |  |  |  |  |  | 
[^18F]FB-RGDLTYLKQKVART-PEG28 ({(18F)FB″}-RGDLTYLKQKVART[PEG28′]) [N-[^18F]T1-V1R] | 11.1±2.6 | 34.2±0.2% | 54% | 11.1±0.5 :1 |  |  |  |  | 6
[^18F]FB-VGDLTYLKQKVART-PEG28 ({(18F)FB″}-VGDLTYLKQKVART[PEG28′]) [N-[^18F]T1] |  | 18.1±0.8% | 61% | 41.7±5.3 :1 |  |  |  |  | 3
